Measured values as given in patent publication US10071084B2, “Nanoparticle, method of preparating the same, and use of the nanoparticle” (Samsung Electronics Co., Ltd., priority 2013, dated 2018).

Tested on: HepG2 liver cancer cells
Test: Cytotoxicity by released nanoparticles containing SRF and BSA: cell viability, CCK-8 kit
Assay type: cell-based
Details: Homo sapiens, 50 μM SRF dissolved in DMSO, 3 hours incubation at 37° C., then 3 days in fresh medium, relative to DMSO-treated cells
Experimental: Liposomes that were sonicated were incubated with cells to confirm the cell viability.
The liposomes of Example 4 were sonicated at a temperature of 25° C. for 16 minutes by using a pool-type sonicator (Branson).
The sonicated liposomes, unsonicated liposomes, 50 μM of SRF (Santa Cruz Biotechnology, Inc.) dissolved in dimethyl sulfoxide (DMSO) (Aldrich), or DMSO itself was added to about 5,000 HepG2 liver cancer cells, followed by being incubated at a temperature of 37° C. for 3 hours. Here, the medium used in the incubation was exchanged with fresh medium. The cells were incubated for at a temperature of 37° C. for 3 days, and number of the cells was counted by using a CCK-8 kit (Dojindo). The cell viability was relatively calculated with respect to the number of the cells that were treated with DMSO, and the results were shown in FIG. 7 (1: DMSO, 2: SRF dissolved in DMSO, 3: liposomes that are not sonicated, 4: liposomes that are sonicated for 16 minutes).

## CNC(=O)c1cc(Oc2ccc(NC(=O)Nc3ccc(Cl)c(C(F)(F)F)c3)cc2)ccn1 [SRF, sorafenib]
  viability at 50 µM: ~36%
